Reference: the supplement of paper PMC11208160

assay: recombinant UMI read abundance after kanamycin selection (control-corrected) (log10(CPM+1)); higher = more efficient recombination; extreme values may be limits of the assay; sequences stand for … in AGTGCAGAGAAAATCGGCCAGTTTTCTCTGCCTGCAGTCCGCATGCCGTGGGACCCCTTGGGTTCTAACCTGTTGCCTAGATTTATGCAGCGGACTGCCTTTCTCCCAAAGTGATAAACCGG…AGGTTGGTTTCACT; site = the 11-nt donor
Description: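 Pooled E. coli donor-specificity screen for the IS621 bridge recombinase. Each library member carries a reprogrammed 11-nt donor and a full-length LE bridge RNA expressed in cis from the natural promoter, with a paired donor-binding loop (8-nt LDG + 4-nt RDG) and a target-binding loop fixed to T5. It is co-electroporated with a T5 target plasmid; recombinase is induced with 0.07 mM IPTG and recombinants are selected on kanamycin. UMIs are counted as CPM, averaged over two biological replicates and corrected by the unselected control. Molecule = full bridge RNA written as DNA, built from the T5 scaffold: LDG = donor specificity nt 1-8, RDG = reverse complement of nt 8-11.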
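Also: IS621 bridge recombinase in Escherichia coli cells against a fixed T5 target plasmid.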

“ACTGTATCATGGACCGGTTTTCCCGGTAATCCGTATTTGAA (site ACTGTATCTTT)” and “ACTGTATCATGGACCGGTTTTCCCGGTAATCCGTATTTGCA (site ACAGTATCTTG)” are within 0.2 log units of each other in “recombinant UMI read abundance (log10)” value: 1.99 for the first, 1.82 for the second.

“ACTGTATCATGGACCGGTTTTCCCGGTAATCCGTATTTGCA (site ACCGTATCTTG)” and “ACTGTATCATGGACCGGTTTTCCCGGTAATCCGTATTTGCA (site ACGGTATCTTG)” are within 0.2 log units of each other in “recombinant UMI read abundance (log10)” value: 1.91 for the first, 1.96 for the second.

Compared with “ACTGTATCATGGACCGGTTTTCCCGGTAATCCGTATTTGCA (site ACTGTATCTTG)”, “ACTTAGACATGGACCGGTTTTCCCGGTAATCCGTATTTGGT (site ACTTAGACTAC)” is lower in “recombinant UMI read abundance (log10)” value: 2.57 for the first, 1.15 for the second.

First: ACTTGATCATGGACCGGTTTTCCCGGTAATCCGTATTTGCG (site ACTTGATCTCG)
Second: ACTTTAACATGGACCGGTTTTCCCGGTAATCCGTATTTGGT (site ACTTTAACTAC)
The “recombinant UMI read abundance (log10)” value of the first is higher: 1.57 for the first, 0.85 for the second.

Compared with “AGAAAAACATGGACCGGTTTTCCCGGTAATCCGTATTTGCA (site AGAAAAACTTG)”, “AGAAAAACATGGACCGGTTTTCCCGGTAATCCGTATTTGCA (site AGGAAGACTTG)” is lower in “recombinant UMI read abundance (log10)” value: 2.23 for the first, 0 for the second.

Compared with “AGAAAGGCATGGACCGGTTTTCCCGGTAATCCGTATTTGCC (site AGAAAGGCTAG)”, “AGAAAGGCATGGACCGGTTTTCCCGGTAATCCGTATTTGCC (site AGAAAGGCTCG)” is higher in “recombinant UMI read abundance (log10)” value: 0 for the first, 0.784 for the second.

“AGAAAGGCATGGACCGGTTTTCCCGGTAATCCGTATTTGCC (site AGAAAGGCTGG)” and “AGAAAGGCATGGACCGGTTTTCCCGGTAATCCGTATTTGCC (site AGAAAGGCTTG)” are within 0.2 log units of each other in “recombinant UMI read abundance (log10)” value: 1.78 for the first, 1.79 for the second.

Going from “AGAAAGGCATGGACCGGTTTTCCCGGTAATCCGTATTTGGT (site AGAAAGGCTAA)” to “AGAAAGGCATGGACCGGTTTTCCCGGTAATCCGTATTTGGT (site AGAAAGGCTAC)”, the “recombinant UMI read abundance (log10)” value falls from 1.65 to 0.881.

Going from “AGAAAGGCATGGACCGGTTTTCCCGGTAATCCGTATTTGGT (site AGAAAGGCTAG)” to “AGAAAGGCATGGACCGGTTTTCCCGGTAATCCGTATTTGGT (site AGAAAGGCTAT)”, the “recombinant UMI read abundance (log10)” value rises from 0.34 to 0.986.

Going from “AGAAAGGCATGGACCGGTTTTCCCGGTAATCCGTATTTGTT (site AGAAAGGCTAA)” to “AGAAAGGCATGGACCGGTTTTCCCGGTAATCCGTATTTGTT (site AGAAAGGCTAC)”, the “recombinant UMI read abundance (log10)” value falls from 1.99 to 0.

Going from “AGAAAGGCATGGACCGGTTTTCCCGGTAATCCGTATTTGTT (site AGAAAGGCTAG)” to “AGAAAGGCATGGACCGGTTTTCCCGGTAATCCGTATTTGTT (site AGAAAGGCTAT)”, the “recombinant UMI read abundance (log10)” value falls from 1.47 to 0.97.

First: AGAAAGTCATGGACCGGTTTTCCCGGTAATCCGTATTTGCA (site AGAAAGTCTTG)
Second: AGAAAGTCATGGACCGGTTTTCCCGGTAATCCGTATTTGCA (site AGGAAGACTTG)
The “recombinant UMI read abundance (log10)” value of the first is higher: 2.65 for the first, 0 for the second.

First: AGAAATCCATGGACCGGTTTTCCCGGTAATCCGTATTTGTT (site AGAAATCCTAA)
Second: AGAAATCCATGGACCGGTTTTCCCGGTAATCCGTATTTGTT (site CGGAATCCTAA)
The “recombinant UMI read abundance (log10)” value of the first is higher: 0.589 for the first, 0.00278 for the second.

Compared with “AGAAATGCATGGACCGGTTTTCCCGGTAATCCGTATTTGAG (site AGAAATGCTCT)”, “AGAAATGCATGGACCGGTTTTCCCGGTAATCCGTATTTGCC (site AGAAATGCTGG)” is lower in “recombinant UMI read abundance (log10)” value: 2.88 for the first, 1.67 for the second.

First: AGAATGCCATGGACCGGTTTTCCCGGTAATCCGTATTTGAC (site AGAATGCCTGT)
Second: AGACACCCATGGACCGGTTTTCCCGGTAATCCGTATTTGCA (site AGACACCCTTG)
The “recombinant UMI read abundance (log10)” value of the first is lower: 0 for the first, 1.15 for the second.

Compared with “AGACGAGCATGGACCGGTTTTCCCGGTAATCCGTATTTGCG (site AGACGAGCTCG)”, “AGACTTGCATGGACCGGTTTTCCCGGTAATCCGTATTTGTA (site AGACTTGCTTA)” is lower in “recombinant UMI read abundance (log10)” value: 2.67 for the first, 0.887 for the second.

Compared with “AGAGCGACATGGACCGGTTTTCCCGGTAATCCGTATTTGTG (site AGAGCGACTCA)”, “AGAGGGTCATGGACCGGTTTTCCCGGTAATCCGTATTTGGT (site AGAGGGTCTAC)” is higher in “recombinant UMI read abundance (log10)” value: 1.49 for the first, 2.54 for the second.

Compared with “AGAGGTCCATGGACCGGTTTTCCCGGTAATCCGTATTTGTG (site AGAGGTCCTCA)”, “AGAGTACCATGGACCGGTTTTCCCGGTAATCCGTATTTGCA (site ACAGTATCTTG)” is higher in “recombinant UMI read abundance (log10)” value: 0.00302 for the first, 1.61 for the second.

Compared with “AGAGTACCATGGACCGGTTTTCCCGGTAATCCGTATTTGCA (site AGAGTACCTTG)”, “AGAGTTACATGGACCGGTTTTCCCGGTAATCCGTATTTGGC (site AGAGTTACTGC)” is higher in “recombinant UMI read abundance (log10)” value: 0 for the first, 2.43 for the second.

Going from “AGATATACATGGACCGGTTTTCCCGGTAATCCGTATTTGTT (site AGATATACTAA)” to “AGATCATCATGGACCGGTTTTCCCGGTAATCCGTATTTGCA (site AGATCATCTTG)”, the “recombinant UMI read abundance (log10)” value rises from 1.74 to 2.25.

Going from “AGATCATCATGGACCGGTTTTCCCGGTAATCCGTATTTGCA (site CGATCATCTAG)” to “AGATCTACATGGACCGGTTTTCCCGGTAATCCGTATTTGTG (site AAATCTACTCA)”, the “recombinant UMI read abundance (log10)” value rises from 0 to 0.223.

First: AGATCTACATGGACCGGTTTTCCCGGTAATCCGTATTTGTG (site ACATCTACTCA)
Second: AGATCTACATGGACCGGTTTTCCCGGTAATCCGTATTTGTG (site AGATCTACTCA)
The “recombinant UMI read abundance (log10)” value of the first is lower: 0.0151 for the first, 0.215 for the second.

First: AGATCTACATGGACCGGTTTTCCCGGTAATCCGTATTTGTG (site ATATCTACTCA)
Second: AGATCTTCATGGACCGGTTTTCCCGGTAATCCGTATTTGCT (site AGATCTTCTAG)
The “recombinant UMI read abundance (log10)” value of the first is lower: 0.00795 for the first, 1.45 for the second.

First: AGATCTTCATGGACCGGTTTTCCCGGTAATCCGTATTTGCT (site CGATCATCTAG)
Second: AGATGTACATGGACCGGTTTTCCCGGTAATCCGTATTTGAC (site AGATGTACTGT)
The “recombinant UMI read abundance (log10)” value of the first is lower: 0 for the first, 1.96 for the second.

First: AGATTCCCATGGACCGGTTTTCCCGGTAATCCGTATTTGTG (site AGATTCCCTCA)
Second: AGATTCCCATGGACCGGTTTTCCCGGTAATCCGTATTTGTG (site AGCTTCCCTCA)
The “recombinant UMI read abundance (log10)” value of the first is higher: 0.348 for the first, 0.0129 for the second.

“AGATTCCCATGGACCGGTTTTCCCGGTAATCCGTATTTGTG (site AGGTTCCCTCA)” and “AGATTCCCATGGACCGGTTTTCCCGGTAATCCGTATTTGTG (site AGTTTCCCTCA)” are within 0.2 log units of each other in “recombinant UMI read abundance (log10)” value: 0.0134 for the first, 0.0189 for the second.

“AGCAAGACATGGACCGGTTTTCCCGGTAATCCGTATTTGCA (site AGAAAGACTTG)” and “AGCAAGACATGGACCGGTTTTCCCGGTAATCCGTATTTGCA (site AGCAAGACTTG)” are within 0.2 log units of each other in “recombinant UMI read abundance (log10)” value: 1.86 for the first, 2.01 for the second.

Compared with “AGCAAGACATGGACCGGTTTTCCCGGTAATCCGTATTTGCA (site AGGAAGACTTG)”, “AGCAAGACATGGACCGGTTTTCCCGGTAATCCGTATTTGCA (site AGTAAGACTTG)” is lower in “recombinant UMI read abundance (log10)” value: 0.969 for the first, 0.542 for the second.

Compared with “AGCACATCATGGACCGGTTTTCCCGGTAATCCGTATTTGGG (site AGCACATCTCC)”, “AGCACCACATGGACCGGTTTTCCCGGTAATCCGTATTTGCA (site AGCACCACTTG)” is higher in “recombinant UMI read abundance (log10)” value: 0.0655 for the first, 2.15 for the second.

Compared with “AGCACGACATGGACCGGTTTTCCCGGTAATCCGTATTTGTC (site AGCACGACTGA)”, “AGCATAGCATGGACCGGTTTTCCCGGTAATCCGTATTTGTT (site AGCATAGCTAA)” is higher in “recombinant UMI read abundance (log10)” value: 1.47 for the first, 1.99 for the second.

“AGCATAGCATGGACCGGTTTTCCCGGTAATCCGTATTTGTT (site AGCCTAGCTAA)” and “AGCATAGCATGGACCGGTTTTCCCGGTAATCCGTATTTGTT (site AGCGTAGCTAA)” are within 0.2 log units of each other in “recombinant UMI read abundance (log10)” value: 0.0149 for the first, 0.0357 for the second.

Going from “AGCATAGCATGGACCGGTTTTCCCGGTAATCCGTATTTGTT (site AGCTTAGCTAA)” to “AGCCAAACATGGACCGGTTTTCCCGGTAATCCGTATTTGAG (site AGCCAAACTCT)”, the “recombinant UMI read abundance (log10)” value rises from 0.00966 to 1.88.

Going from “AGCCAATCATGGACCGGTTTTCCCGGTAATCCGTATTTGGA (site AGCCAATCTTC)” to “AGCCATTCATGGACCGGTTTTCCCGGTAATCCGTATTTGAC (site AGCCATTCTGT)”, the “recombinant UMI read abundance (log10)” value rises from 1.67 to 2.1.

“AGCCATTCATGGACCGGTTTTCCCGGTAATCCGTATTTGAC (site AGCCCTTCTGT)” and “AGCCATTCATGGACCGGTTTTCCCGGTAATCCGTATTTGAC (site AGCCGTTCTGT)” are the same in “recombinant UMI read abundance (log10)” value: 0 for the first, 0 for the second.

Compared with “AGCCATTCATGGACCGGTTTTCCCGGTAATCCGTATTTGAC (site AGCCTTTCTGT)”, “AGCCCATCATGGACCGGTTTTCCCGGTAATCCGTATTTGCT (site AGCCCATCTAG)” is higher in “recombinant UMI read abundance (log10)” value: 0 for the first, 1.83 for the second.

Going from “AGCCCTGCATGGACCGGTTTTCCCGGTAATCCGTATTTGGG (site AGCCCTGCTCC)” to “AGCCCTTCATGGACCGGTTTTCCCGGTAATCCGTATTTGAC (site AGCCATTCTGT)”, the “recombinant UMI read abundance (log10)” value falls from 0.336 to 0.
